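Cells were grown in 96-well plates and exposed to each compound for 48 hours at five concentrations; endpoints were interpolated linearly between bracketing concentrations, or set to the highest concentration if not reached. GI50 marks 50% less growth. TGI is the concentration that stops growth completely.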
Experiments:
Assay in all cases: inhibition of tumour cell growth, NCI panel, 48 h
NCI-H460 lung = system: NCI-H460 lung
IGROV1 ovarian = system: IGROV1 ovarian
SN12C renal = system: SN12C renal
U251 CNS = system: U251 CNS
MOLT-4 leukemia = system: MOLT-4 leukemia
CAKI-1 renal = system: CAKI-1 renal
SK-MEL-5 melanoma = system: SK-MEL-5 melanoma
SR leukemia = system: SR leukemia
SNB-19 CNS = system: SNB-19 CNS
NCI-H23 lung = system: NCI-H23 lung

Row | Structure (SMILES) | TGI (NCI-H460 lung) | TGI (IGROV1 ovarian) | TGI (SN12C renal) | TGI (U251 CNS) | TGI (MOLT-4 leukemia) | TGI (CAKI-1 renal) | TGI (SK-MEL-5 melanoma) | TGI (SR leukemia) | TGI (SNB-19 CNS) | TGI (NCI-H23 lung) | GI50 (NCI-H460 lung) | GI50 (IGROV1 ovarian) | GI50 (SN12C renal) | GI50 (U251 CNS) | GI50 (MOLT-4 leukemia) | GI50 (CAKI-1 renal) | GI50 (SK-MEL-5 melanoma) | GI50 (SR leukemia) | GI50 (SNB-19 CNS) | GI50 (NCI-H23 lung)
1 | O=C(/C=C/c1ccccc1)c1ccc(NCc2nc3ccccc3[nH]2)cc1 | 12 µM | 19.8 µM | 15.4 µM | 5.17 µM | 32.3 µM | 25.2 µM | 14.2 µM | > 35.3 µM | 15.9 µM | 11 µM |  |  |  |  |  |  |  |  |  | 
2 | CC(C)(C)OC(=O)NCCCCCCCn1c2c(c3ccccc3c1=O)C(=O)c1ccccc1-2 | > 100 µM | > 100 µM | > 100 µM | 89.5 µM | > 100 µM | 73 µM | 27.6 µM | > 100 µM | > 100 µM | > 100 µM | 28.6 µM | 26.9 µM | 73.7 µM | 28.9 µM | 25.6 µM | 32.2 µM | 9.84 µM | 4.95 µM | 32.5 µM | 26 µM
3 | C=CC(OCC)(OCC)OCC | > 100 µM | > 100 µM | > 100 µM | > 100 µM | > 100 µM | > 100 µM | > 100 µM | 65.4 µM | > 100 µM | > 100 µM |  |  |  |  |  |  |  |  |  | 
4 | COc1ccc(OC)c(Cn2cc3c(c2-c2ccccc2)CCc2cnoc2-3)c1 | > 100 µM | > 100 µM | > 100 µM | > 100 µM | > 100 µM | > 100 µM | 40.3 µM | > 100 µM | > 100 µM | > 100 µM | 3.3 µM | 6.11 µM | 23.8 µM | 5.38 µM | 3.95 µM | 4.35 µM | 3.7 µM | 2.62 µM | 9.43 µM | 7.99 µM
5 | O=C(N[C@@H](C[Se][Se]C[C@H](NC(=O)c1ccc(Br)cc1F)C(=O)O)C(=O)O)c1ccc(Br)cc1F | > 100 µM | > 100 µM | > 100 µM | > 100 µM | > 100 µM | > 100 µM | > 100 µM | > 100 µM | > 100 µM | > 100 µM | > 100 µM | > 100 µM | > 100 µM | > 100 µM | > 100 µM | > 100 µM | > 100 µM | 95.4 µM | > 100 µM | > 100 µM
6 | C=C1C[C@@H]2CC[C@@]34C[C@H]5O[C@H]6[C@@H](O3)[C@H]3O[C@H](CC[C@@H]3O[C@H]6[C@@H]5O4)CC(=O)C[C@@H]3[C@@H](OC)[C@@H](C[C@H](O)CN)O[C@H]3C[C@H]3O[C@@H](CC[C@@H]1O2)C[C@@H](C)C3=C | > 100 µM | > 100 µM | > 100 µM | > 100 µM | > 100 µM | > 100 µM | 1.11 µM | > 100 µM | > 100 µM | > 100 µM | < 0.01 µM | < 0.01 µM | < 0.01 µM | < 0.01 µM | < 0.01 µM | 0.0358 µM | < 0.0135 µM | < 0.01 µM | < 0.01 µM | < 0.01 µM
7 | O=C1OCC2=C1C(c1ccccc1)c1cc3c(cc1N2CCO)OCO3 (stereo not given) | > 50 µM | > 50 µM | > 50 µM | > 50 µM | > 50 µM | > 50 µM | > 50 µM | > 50 µM | > 50 µM | > 50 µM | 2.07 µM | 2.91 µM | 20.2 µM | 3.01 µM | > 50 µM | 3.87 µM | 2.78 µM | 3.49 µM | 15.6 µM | 7.88 µM
8 | COC(=O)C1(C(=O)OC)CC(=O)c2cc3c(cc2-c2c(cc(OC)c(OC)c2OC)C1)OCO3 | > 211 µM | > 211 µM | > 211 µM | > 211 µM | > 211 µM | > 211 µM | > 211 µM | > 211 µM | > 211 µM | > 211 µM |  |  |  |  |  |  |  |  |  | 
9 | O=C(O)c1ccccc1/C=N/N=C1c2ccccc2-c2ccccc21 | 70.2 µM | > 100 µM | > 100 µM | 55.6 µM | 71 µM | > 100 µM | > 100 µM | 95.5 µM | > 100 µM | > 100 µM |  |  |  |  |  |  |  |  |  | 
10 | CSC1=Nc2ccccc2N=C(c2ccc(Cl)cc2)C1 | > 100 µM | > 100 µM | > 100 µM | > 100 µM | 67.4 µM | > 100 µM | 51.3 µM | > 100 µM | > 100 µM | > 100 µM |  |  |  |  |  |  |  |  |  | 
11 | CCNC(=O)COc1ccc(Cl)cc1Cl | > 100 µM | > 100 µM | > 100 µM | > 100 µM | > 100 µM | > 100 µM | > 100 µM | > 100 µM | > 100 µM | > 100 µM |  |  |  |  |  |  |  |  |  | 
12 | COC(=O)C1(O)CC(=O)CCC1c1ccc(OC)cc1 (stereo not given) | > 100 µM | > 100 µM | > 100 µM | > 100 µM | > 100 µM | > 100 µM | > 100 µM | > 100 µM | > 100 µM | > 100 µM |  |  |  |  |  |  |  |  |  | 

From PubChem BioAssay (NCI)
